# Test results published in patent publication US9133417B2, “Liquid cleaning and disinfecting compositions comprising an assymetrically branched amine oxide” (THE PROCTER & GAMBLE COMPANY, priority 2012, dated 2015).
# How the values were obtained:
# Conditions in all cases: Shake Flask, 1 hour contact (T1h vs T0), incubation 32 °C 24 hours; test concentration not given
# [1] = test system: Pseudomonas Aeruginosa (PA) CIP 82.113
# Procedure: (§1) The antibacterial efficacy was tested following the below Shake Flask protocol:
# (§2) • Microbial strains: Staphylococcus aureus (SA) CIP 4.83, Escherichia Coli (EC) CIP 53.126, Pseudomonas Aeruginosa (PA) CIP 82.113 • Culture media: TSA medium—Neutralizing medium (Dey Engley Broth)—Buffered Peptoned water (BPW-F)—Shake flask bottles—Physiological water • Incubator Shake Flask Protocol: ASTM E2149 Shake Flask Method • Inoculum counting: • For each strain, prepare an inoculum at 0.5 Mc Farland (McF). Dilute 1 ml of the inoculum with 9 ml of physiological water. Select 1 ml of the resulting dilution and dilute again with 9 ml of physiological water. Execute 5 dilution steps accordingly so that a 10^−5 dilution is obtained. • Recover 100 microliter of the 10^−5 dilution and inoculate 2 petri dishes. • Add 20 ml of TSA medium. • Incubate at 32+/−0.5° C. during 24 hours • Negative control: • Put 5 ml of SA, EC or PA inoculums into a shake flask. Add 45 ml of pure BPW-F solution. • Dilute twice in neutralizing medium: Recover 1 ml of the pure solution and add 9 ml of the neutralizing medium (=10^−1 and 10^−2 dilution). • Wait 5 minutes and put 100 microliter of the pure solution and the 10^−2 dilution into 2 petri dishes, add 20 ml of TSA medium (T0). • Do the same operation after 1 hour (T1h). • Incubate at 32+/−0:5° C. during 24 hours • Sample testing: • Prepare a solution at a specified concentration (see data tables for actual concentrations as 100% active—final volume 50 ml). For example, for a 50% (V/V), dilute 25 ml of product with 20 ml of BPW-F and 5 ml of the inoculums (SA, EC or PA) at 0.5 McF. • Dilute twice in neutralizing medium: Recover 1 ml of the pure solution and add 9 ml of the neutralizing medium (=10^−1 and 10^−2 dilution). • Wait 5 minutes and put 100 microliter of the pure solution and the 10^−2 dilution into 2 petri dishes, add 20 ml of TSA medium (T0). • Do the same operation after 1 hour (T1h). • Incubate at 32+/−0.5° C. during 24 hours • Calculation of log reduction: • The log reduction is calculated as log (T0/T1h)
# [2] = test system: Staphylococcus aureus (SA) CIP 4.83
# Procedure: as §1, §2
# [3] = test system: Escherichia Coli (EC) CIP 53.126
# Procedure: as §1, §2
Substance,"log reduction, log (T0/T1h), Ps Aeroginosa [1]","log reduction, log (T0/T1h), St. Aureus [2]","log reduction, log (T0/T1h), E. coli [3]"
asymmetrically branched C12-14 alkyl dimethyl amine oxide,3.98,4.06,
linear C12-14 alkyl dimethyl amine oxide [reference compound],2.10,0.73,0.41
symmetrically branched C12-14 alkyl dimethyl amine oxide,3.29,,2.6
